Inconclusive results and toxic doses are left out.

Among the data in PubChem BioAssay AID248 (DTP/NCI, 2004) are T/C values, retold here.

The test system of the assay is L1210 leukemia ip in BDF1 mice, survival T/C. Nature of the assay: NCI In Vivo Anticancer Drug Screen. Data for tumor model L1210 Leukemia (intraperitoneal) in B6D2F1 (BDF1) mice. The note with it: endpoint: mean survival time, higher = longer survival. The essentials: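 Transplanted-tumor mice were given test agent; controls received vehicle only. Survival readings from the two groups were divided (treated over control).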

The mark [1] stands for this setting: dose: 50.0 mg/kg/injection, schedule: Q01DX009 (ip), vehicle: Klucel (hydroxypropylcellulose) (HPC).
Setting [2] is: dose: 100.0 mg/kg/injection, schedule: Q01DX001 (ip), vehicle: carboxymethylcellulose (CMC).
The mark [3] stands for this setting: dose: 100.0 mg/kg/injection, schedule: Q01DX001 (ip), vehicle: saline.
Setting [4] is: dose: 100.0 mg/kg/injection, schedule: Q01DX009 (ip), vehicle: Klucel (hydroxypropylcellulose) (HPC).
The mark [5] stands for this setting: dose: 100.0 mg/kg/injection, schedule: Q01DX009 (ip), vehicle: saline.
The mark [6] stands for this setting: dose: 200.0 mg/kg/injection, schedule: Q01DX001 (ip), vehicle: carboxymethylcellulose (CMC).
Where [7] appears, read: dose: 200.0 mg/kg/injection, schedule: Q01DX001 (ip), vehicle: saline.
[8] abbreviates: dose: 400.0 mg/kg/injection, schedule: Q01DX001 (ip), vehicle: carboxymethylcellulose (CMC).
[9] abbreviates: dose: 200.0 mg/kg/injection, schedule: Q01DX009 (ip), vehicle: Klucel (hydroxypropylcellulose) (HPC).
Where [10] appears, read: dose: 100.0 mg/kg/injection, schedule: Q01DX009 (ip), vehicle: saline with Tween-80.
Where [11] appears, read: dose: 200.0 mg/kg/injection, schedule: Q01DX009 (ip), vehicle: saline with Tween-80.
[12] abbreviates: dose: 400.0 mg/kg/injection, schedule: Q01DX009 (ip), vehicle: saline with Tween-80.
[13] abbreviates: dose: 50.0 mg/kg/injection, schedule: Q01DX009 (ip), vehicle: saline with Tween-80.
[14] abbreviates: dose: 100.0 mg/kg/injection, schedule: Q04DX002 (ip), vehicle: saline with Tween-80.
Where [15] appears, read: dose: 200.0 mg/kg/injection, schedule: Q04DX002 (ip), vehicle: saline with Tween-80.

On to `CCCCNC(C)C1(O)Cc2c(O)c3c(c(O)c2C(OC2CC(N)C(O)C(C)O2)C1)C(=O)c1c(OC)cccc1C3=O` (centres undefined), for which the T/C by setting is: (dose: 5.0 mg/kg/injection, schedule: Q01DX009 (ip), vehicle: water) 100 % of control; (dose: 10.0 mg/kg/injection, schedule: Q01DX009 (ip), vehicle: water) 100 % of control; (dose: 20.0 mg/kg/injection, schedule: Q01DX009 (ip), vehicle: water) 92 % of control; (dose: 80.0 mg/kg/injection, schedule: Q01DX009 (ip), vehicle: water) 104 % of control.

Consider `NC(=S)N/N=C/c1c(Cl)[nH]c2ccccc12`, for which the T/C (dose: 50.0 mg/kg/injection, schedule: Q04DX002 (ip), vehicle: saline) was 98 % of control; the T/C (dose: 100.0 mg/kg/injection, schedule: Q04DX002 (ip), vehicle: saline) is 102 % of control; the T/C (dose: 200.0 mg/kg/injection, schedule: Q04DX002 (ip), vehicle: saline) is 98 % of control.

`CCCCCCCCCCCCCCCCCCOC(=O)c1ccco1`: the T/C is, setting by setting: (dose: 100.0 mg/kg/injection, schedule: Q01DX001 (ip), vehicle: other) 96 % of control; (dose: 200.0 mg/kg/injection, schedule: Q01DX001 (ip), vehicle: other) 105 % of control; (dose: 400.0 mg/kg/injection, schedule: Q01DX001 (ip), vehicle: other) 92 % of control.

With `O=NN(CCCl)C(=O)Nc1ccc(F)cc1`, the T/C (dose: 9.37 mg/kg/injection, schedule: Q01DX001 (ip), vehicle: carboxymethylcellulose (CMC)) is 150 % of control; the T/C (dose: 12.5 mg/kg/injection, schedule: Q01DX001 (ip), vehicle: carboxymethylcellulose (CMC)) was 162 % of control; the T/C (dose: 18.75 mg/kg/injection, schedule: Q01DX001 (ip), vehicle: carboxymethylcellulose (CMC)) was 171 % of control; the T/C (dose: 25.0 mg/kg/injection, schedule: Q01DX001 (ip), vehicle: carboxymethylcellulose (CMC)) was 253 % of control; the T/C (dose: 37.5 mg/kg/injection, schedule: Q01DX001 (ip), vehicle: carboxymethylcellulose (CMC)) is 171 % of control.

With `Nc1nc(Cl)nc2c1ncn2C1OC(CO)C(O)C1O` (centres undefined), the T/C (dose: 25.0 mg/kg/injection, schedule: Q01DX009 (ip), vehicle: Klucel (hydroxypropylcellulose) (HPC)) was 102 % of control; the T/C (dose: 37.5 mg/kg/injection, schedule: Q01DX009 (ip), vehicle: saline with Tween-80) was 113 % of control; the T/C (dose: 50.0 mg/kg/injection, schedule: Q01DX001 (ip), vehicle: carboxymethylcellulose (CMC)) was 93 % of control; the T/C under setting [1] was 114 % of control; the T/C (dose: 50.0 mg/kg/injection, schedule: Q04DX003 (ip), vehicle: saline) is 108 % of control; the T/C under setting [2] was 96 % of control. Also, the T/C was 92 % of control under setting [3]; 123 % of control under setting [4]; 156 % of control under setting [5]; 113 % of control (dose: 100.0 mg/kg/injection, schedule: Q04DX003 (ip), vehicle: saline); 98 % of control under setting [6]; 103 % of control under setting [7]. Besides, the T/C by setting is: (dose: 225.0 mg/kg/injection, schedule: Q01DX009 (ip), vehicle: saline) 121 % of control; (dose: 300.0 mg/kg/injection, schedule: Q04DX003 (ip), vehicle: saline) 153 % of control; under setting [8], 118 % of control.

Consider `CC(O)/C(=N/Nc1ccc([N+](=O)[O-])cc1[N+](=O)[O-])C(=O)O` (centres undefined), for which the T/C runs as follows: under setting [1], 106 % of control; under setting [4], 96 % of control; (dose: 100.0 mg/kg/injection, schedule: Q04DX003 (ip), vehicle: Klucel (hydroxypropylcellulose) (HPC)) 91 % of control; under setting [9], 96 % of control; (dose: 200.0 mg/kg/injection, schedule: Q04DX003 (ip), vehicle: Klucel (hydroxypropylcellulose) (HPC)) 88 % of control.

For the compound `COc1ccc(OC)c(NC(=O)OCCOc2ccccc2)c1`, the T/C is 104 % of control under setting [10], 107 % of control under setting [11] and 100 % of control under setting [12].

Regarding `c1csc(Cc2cccs2)c1`, the T/C is, setting by setting: (dose: 50.0 mg/kg/injection, schedule: Q01DX009 (ip), vehicle: other) 112 % of control; (dose: 100.0 mg/kg/injection, schedule: Q01DX009 (ip), vehicle: other) 112 % of control; (dose: 200.0 mg/kg/injection, schedule: Q01DX009 (ip), vehicle: other) 116 % of control.

Regarding `CCCCCCCCC/C(=N\Nc1ccc([N+](=O)[O-])cc1[N+](=O)[O-])c1ccccc1`, the T/C is, setting by setting: (dose: 100.0 mg/kg/injection, schedule: Q04DX003 (ip), vehicle: saline sonified) 108 % of control; (dose: 200.0 mg/kg/injection, schedule: Q04DX003 (ip), vehicle: saline sonified) 98 % of control; (dose: 400.0 mg/kg/injection, schedule: Q04DX003 (ip), vehicle: saline sonified) 108 % of control.

For the compound `CCCCNC(C)(C)CSS(=O)(=O)O`, the T/C reads like this: under setting [13], 97 % of control; under setting [10], 109 % of control; (dose: 100.0 mg/kg/injection, schedule: Q04DX003 (ip), vehicle: saline with Tween-80) 96 % of control; under setting [11], 103 % of control; (dose: 200.0 mg/kg/injection, schedule: Q04DX003 (ip), vehicle: saline with Tween-80) 96 % of control; under setting [12], 103 % of control. In addition, the T/C (dose: 400.0 mg/kg/injection, schedule: Q04DX003 (ip), vehicle: saline with Tween-80) was 96 % of control.

Turning to `O=C1CCCCC1c1sc([N+](=O)[O-])cc1[N+](=O)[O-]` (centres undefined), the T/C is 93 % of control under setting [14] and 104 % of control under setting [15].

`NC(Cc1c[nH]c2ccccc12)C(=O)O` (centres undefined): the T/C was 95 % of control (dose: 100.0 mg/kg/injection, schedule: Q01DX001 (ip), vehicle: saline with Tween-80); 100 % of control under setting [5]; 98 % of control (dose: 200.0 mg/kg/injection, schedule: Q01DX001 (ip), vehicle: saline with Tween-80); 94 % of control (dose: 200.0 mg/kg/injection, schedule: Q01DX009 (ip), vehicle: saline); 92 % of control (dose: 300.0 mg/kg/injection, schedule: Q01DX001 (ip), vehicle: saline with Tween-80); 94 % of control (dose: 400.0 mg/kg/injection, schedule: Q01DX009 (ip), vehicle: saline). In addition, the T/C (dose: 800.0 mg/kg/injection, schedule: Q01DX009 (ip), vehicle: saline) was 94 % of control.

In the case of `O=[N+]([O-])c1ccc(N/N=C/C(O)C(O)C(O)CO)cc1` (centres undefined), the T/C was 106 % of control (dose: 50.0 mg/kg/injection, schedule: Q04DX002 (ip), vehicle: saline with Tween-80); 106 % of control under setting [14]; 87 % of control under setting [15].

`COC(=O)c1ccccc1NC(=S)NC(=O)c1ccccc1F`: the T/C is 93 % of control (dose: 25.0 mg/kg/injection, schedule: Q01DX009 (ip), vehicle: saline with Tween-80); 92 % of control under setting [13]; 91 % of control under setting [11].

In the case of `CC1=CC(c2c(O)cccc2O)C(=C(C)C)CC1` (centres undefined), the T/C is, setting by setting: under setting [1], 95 % of control; under setting [4], 95 % of control; under setting [9], 95 % of control.

In the case of `CCCCCC(CN(C)C)C(=O)/C=C\c1ccc(Cl)cc1Cl` (centres undefined), the T/C was 87 % of control (dose: 12.5 mg/kg/injection, schedule: Q04DX003 (ip), vehicle: alcohol); 97 % of control (dose: 25.0 mg/kg/injection, schedule: Q04DX003 (ip), vehicle: alcohol); 97 % of control (dose: 50.0 mg/kg/injection, schedule: Q04DX003 (ip), vehicle: alcohol).

As to `O=C(/C=C\c1ccc(/C=C\C(=O)c2ccccc2O)cc1)c1ccccc1O`, the T/C (dose: 50.0 mg/kg/injection, schedule: Q01DX001 (ip), vehicle: saline) was 97 % of control; the T/C under setting [3] is 97 % of control; the T/C under setting [7] was 97 % of control; the T/C (dose: 400.0 mg/kg/injection, schedule: Q01DX001 (ip), vehicle: saline) was 103 % of control.

For `Cc1ccccc1NC(=O)NO`, the T/C runs as follows: under setting [2], 103 % of control; under setting [6], 100 % of control; under setting [8], 105 % of control.
